Structures are written as SMILES.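 The compound was tested at five concentrations on cells cultured in 96-well plates, with a 48-hour exposure period. Here, GI50 denotes the concentration required for 50% inhibition of growth. TGI marks complete inhibition of growth.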

For eight compounds, GI50 and TGI results are on record in PubChem BioAssay (NCI).

Among the test systems are MDA-MB-231 breast; PC-3 prostate; HT29 colon; MDA-MB-435; UACC-62 melanoma; M14 melanoma; EKVX NSCLC; OVCAR-4 ovarian; SK-MEL-28 melanoma; RXF 393 renal.
Common to all, as to assay: DTP human tumour cell line panel, 48 h

In the case of `CC/C=C\C[C@H]1C/C=C2/C(=O)C=C[C@@H]2C/C=C\CCCC(=O)O1`, the GI50 is 2.76 µM in the test with MDA-MB-231 breast; 1.31 µM in the test on PC-3 prostate; 0.376 µM in the test with HT29 colon; 0.37 µM with MDA-MB-435; 0.573 µM in the test with UACC-62 melanoma; 0.599 µM in the test with M14 melanoma. Also, the GI50 in the test on EKVX NSCLC was 2.04 µM; in the test with OVCAR-4 ovarian it was 2.73 µM; in the test with SK-MEL-28 melanoma it was 0.791 µM; in the test with RXF 393 renal, 1.57 µM. The TGI in the test with MDA-MB-231 breast was found to be 13.2 µM; with PC-3 prostate it was 3.73 µM; in the test with HT29 colon it was 1.27 µM; in the test on MDA-MB-435, 4.08 µM; with UACC-62 melanoma it was 2.37 µM; in the test with M14 melanoma, 3.7 µM. For the same compound, the TGI in the test on EKVX NSCLC amounted to 5.89 µM; in the test on OVCAR-4 ovarian it was 16.3 µM; in the test on SK-MEL-28 melanoma it was 3.07 µM; in the test with RXF 393 renal it was 3.1 µM.

Turning to `CC1=C[C@H]2c3c(c(O)c(O)c4oc(-c5ccccc5)cc(=O)c34)[C@H](c3cc(O)c(O)c4oc(-c5ccccc5)cc(=O)c34)[C@H]2C(C)(C)C1`, the GI50 with MDA-MB-231 breast was 2.71 µM; in the test on PC-3 prostate, 1.44 µM; in the test on HT29 colon, 0.888 µM; in the test on MDA-MB-435, 0.435 µM; with UACC-62 melanoma, 0.516 µM; with M14 melanoma it was 0.887 µM. Also, the GI50 with EKVX NSCLC is 1.14 µM; in the test with OVCAR-4 ovarian, 1.56 µM; in the test with SK-MEL-28 melanoma, 1.12 µM; in the test with RXF 393 renal it was 0.245 µM. The TGI with MDA-MB-231 breast was 17.7 µM; with PC-3 prostate, 14.8 µM; in the test with HT29 colon it was above 75 µM; in the test on MDA-MB-435, 5.74 µM; in the test with UACC-62 melanoma, 1.97 µM; in the test on M14 melanoma, 4.88 µM. In addition, the total growth inhibition concentration (TGI) in the test with EKVX NSCLC was 11.4 µM; in the test with OVCAR-4 ovarian it was 9.55 µM; in the test on SK-MEL-28 melanoma, 9.51 µM; with RXF 393 renal, 1.86 µM.

In the case of `CN(C)C(=O)[C@H](O)[C@H](Cc1ccccc1)NC(=O)c1cc2cc(Cl)ccc2[nH]1`, the GI50 in the test with MDA-MB-231 breast was 19.6 µM; in the test on PC-3 prostate it was 24.4 µM; in the test on HT29 colon, 20.3 µM; in the test with MDA-MB-435, 22.9 µM; in the test on UACC-62 melanoma it was 13.5 µM; in the test with M14 melanoma, 23.2 µM. For the same compound, the GI50 is 25.7 µM in the test on EKVX NSCLC, 25.8 µM with OVCAR-4 ovarian, 19 µM in the test on SK-MEL-28 melanoma and 20 µM in the test with RXF 393 renal. Further, the concentration for total growth inhibition (TGI) in the test on MDA-MB-231 breast was 52.8 µM; in the test on PC-3 prostate, above 89.6 µM; in the test on HT29 colon, 48.8 µM; in the test on MDA-MB-435, 70.1 µM; in the test on UACC-62 melanoma, 32.7 µM; in the test on M14 melanoma, 67.6 µM. The TGI was above 100 µM in the test with EKVX NSCLC, above 100 µM with OVCAR-4 ovarian, 54.5 µM in the test with SK-MEL-28 melanoma and 62.9 µM in the test on RXF 393 renal.

Take `COc1ccc(CCN2COc3c([C@@H](C)CCC=C(C)C)ccc(C)c3C2)cc1OC`: the GI50 in the test with MDA-MB-231 breast is 2.76 µM; in the test on PC-3 prostate it was 1.95 µM; in the test with HT29 colon, 2.2 µM; in the test with MDA-MB-435, 3.11 µM; with UACC-62 melanoma, 3.48 µM; with M14 melanoma, 1.69 µM. In addition, the GI50 with EKVX NSCLC was 5.14 µM; in the test with OVCAR-4 ovarian, 2.99 µM; in the test with SK-MEL-28 melanoma, 2.21 µM; in the test on RXF 393 renal, 1.73 µM. For the same compound, the TGI turned out to be 9.37 µM with MDA-MB-231 breast; 5.83 µM in the test with PC-3 prostate; 5.73 µM in the test with HT29 colon; 10.9 µM with MDA-MB-435; 14.6 µM in the test with UACC-62 melanoma; 3.18 µM in the test on M14 melanoma. Further, the concentration for total growth inhibition (TGI) stood at 25.4 µM in the test on EKVX NSCLC, 16 µM in the test on OVCAR-4 ovarian, 4.94 µM with SK-MEL-28 melanoma and 4.85 µM in the test on RXF 393 renal.

As to `C[C@]12CC[C@@H]3c4cc(OCC(F)(F)F)c(O)cc4/C(=N/O)C[C@H]3[C@@H]1CC[C@@H]2O`, the TGI was 1.5 µM in the test with MDA-MB-231 breast; 12 µM with PC-3 prostate; 13.2 µM in the test on HT29 colon; 0.0465 µM with MDA-MB-435; 17.7 µM in the test with UACC-62 melanoma; 16.9 µM with M14 melanoma. For the same compound, the TGI in the test on EKVX NSCLC turned out to be 28.9 µM; in the test with OVCAR-4 ovarian it was 39 µM; with SK-MEL-28 melanoma, 25.9 µM; with RXF 393 renal it was 0.135 µM. Further, the concentration for 50% growth inhibition (GI50) was 0.0243 µM in the test on UACC-62 melanoma, 0.0513 µM with M14 melanoma, 0.0637 µM with SK-MEL-28 melanoma and 0.0322 µM in the test with RXF 393 renal.

For `CCn1c(-c2ccc(OC(C)=O)cc2)c(C)c2cc(OC(C)=O)ccc21`, the TGI came out at 38.3 µM in the test on MDA-MB-231 breast; 44.1 µM in the test on PC-3 prostate; 89.6 µM in the test with HT29 colon; 33.7 µM with MDA-MB-435; 28.3 µM in the test with UACC-62 melanoma; 38.9 µM with M14 melanoma. The TGI with EKVX NSCLC turned out to be 71.4 µM; with OVCAR-4 ovarian it was 59.8 µM; in the test with SK-MEL-28 melanoma, 59.1 µM; in the test on RXF 393 renal, 25.6 µM.

In the case of `CC1=CC(C/C(C)=C/COc2ccc3ccc(=O)oc3c2)OC1=O` (centres undefined), the total growth inhibition concentration (TGI) with MDA-MB-231 breast, with PC-3 prostate, in the test with HT29 colon, in the test with MDA-MB-435, with UACC-62 melanoma and in the test on M14 melanoma was above 100 µM throughout. The TGI in the test on EKVX NSCLC, with OVCAR-4 ovarian, with SK-MEL-28 melanoma and with RXF 393 renal was above 100 µM throughout.

Consider `Cc1ccc2[nH]c(O)c(N=Nc3ccc(S(N)(=O)=O)cc3)c2c1`, for which the GI50 in the test with MDA-MB-231 breast was above 25 µM; with PC-3 prostate it was 11.9 µM; in the test with HT29 colon it was 12.1 µM; with MDA-MB-435 it was 15.5 µM; with UACC-62 melanoma, above 23.7 µM; with M14 melanoma it was above 25 µM. The GI50 in the test on EKVX NSCLC is above 25 µM; in the test with OVCAR-4 ovarian it was 6.62 µM; with SK-MEL-28 melanoma it was 24.4 µM; in the test with RXF 393 renal, 5.27 µM. Further, the TGI in the test with MDA-MB-231 breast, with PC-3 prostate, in the test on HT29 colon, in the test with MDA-MB-435, in the test with UACC-62 melanoma and in the test with M14 melanoma was above 25 µM in each case. For the same compound, the TGI with EKVX NSCLC was above 25 µM; with OVCAR-4 ovarian, above 25 µM; in the test on SK-MEL-28 melanoma, above 25 µM; with RXF 393 renal, 17.5 µM.
